The NIST ThermoML archive (doi:10.1016/j.tca.2006.05.016)

How the values were obtained:
[1] = molar heat capacity at constant pressure; conditions: 101.33 kPa, Vacuum adiabatic calorimetry
[2] = Molar enthalpy of transition or fusion; conditions: Crystal 2; Adiabatic calorimetry
[3] = Crystal 2; Adiabatic calorimetry

O.O=C([O-])[C@H](O)[C@@H](O)CO.[Na+] [sodium (2R,3S)-2,3,4-trihydroxybutanoate hydrate]
[1]
Conditions	molar heat capacity at constant pressure [J/K/mol]
77.95 K, Crystal 2	75
79.37 K, Crystal 2	76.72
81.36 K, Crystal 2	79.56
83.91 K, Crystal 2	84.79
86.36 K, Crystal 2	87.68
88.76 K, Crystal 2	90.45
91.09 K, Crystal 2	93.27
93.36 K, Crystal 2	96.08
95.59 K, Crystal 2	98.2
97.78 K, Crystal 2	100.57
99.92 K, Crystal 2	102.71
102.04 K, Crystal 2	105.14
104.12 K, Crystal 2	107.69
106.16 K, Crystal 2	109.95
108.18 K, Crystal 2	111.9
110.17 K, Crystal 2	113.31
112.13 K, Crystal 2	114.95
114.07 K, Crystal 2	116.19
115.97 K, Crystal 2	117.54
117.86 K, Crystal 2	118.71
119.77 K, Crystal 2	120.32
121.62 K, Crystal 2	121.99
123.51 K, Crystal 2	123.24
125.33 K, Crystal 2	124.71
127.14 K, Crystal 2	125.29
128.86 K, Crystal 2	126.35
130.68 K, Crystal 2	127.87
132.5 K, Crystal 2	128.63
134.24 K, Crystal 2	131.67
135.97 K, Crystal 2	132.68
137.73 K, Crystal 2	133.19
139.48 K, Crystal 2	134.44
141.23 K, Crystal 2	136.19
142.86 K, Crystal 2	137.59
144.61 K, Crystal 2	138.32
146.3 K, Crystal 2	140.73
147.99 K, Crystal 2	140.29
149.61 K, Crystal 2	141.98
151.3 K, Crystal 2	143.95
152.96 K, Crystal 2	145.69
154.61 K, Crystal 2	147.47
156.3 K, Crystal 2	148.86
157.86 K, Crystal 2	150.83
159.54 K, Crystal 2	152.22
161.17 K, Crystal 2	153.62
162.73 K, Crystal 2	154.86
164.35 K, Crystal 2	156.25
165.91 K, Crystal 2	156.39
167.53 K, Crystal 2	158.29
169.09 K, Crystal 2	159.91
172.12 K, Crystal 2	160.63
176.29 K, Crystal 2	162.82
180.3 K, Crystal 2	165.02
184.22 K, Crystal 2	166.35
188.18 K, Crystal 2	168.27
191.97 K, Crystal 2	170.46
195.83 K, Crystal 2	171.25
199.61 K, Crystal 2	172.21
203.33 K, Crystal 2	173.89
207.04 K, Crystal 2	175.99
210.68 K, Crystal 2	177.22
214.32 K, Crystal 2	179.68
217.96 K, Crystal 2	181.35
221.51 K, Crystal 2	183.72
225 K, Crystal 2	185.96
228.51 K, Crystal 2	187.72
231.95 K, Crystal 2	189.41
235.39 K, Crystal 2	192.26
238.79 K, Crystal 2	194.53
242.04 K, Crystal 2	198.57
245.39 K, Crystal 2	201.48
248.7 K, Crystal 2	203.61
252.08 K, Crystal 2	206.16
255.46 K, Crystal 2	208.87
258.7 K, Crystal 2	210.99
262.01 K, Crystal 2	212.53
265.32 K, Crystal 2	215.68
268.57 K, Crystal 2	217.65
271.77 K, Crystal 2	220.53
275 K, Crystal 2	224.17
278.12 K, Crystal 2	228.04
281.3 K, Crystal 2	231.99
284.42 K, Crystal 2	237.12
287.53 K, Crystal 2	241.14
290.52 K, Crystal 2	246.12
293.51 K, Crystal 2	256.15
296.36 K, Crystal 2	269.06
299.17 K, Crystal 2	287.71
301.89 K, Crystal 2	317.39
304.46 K, Crystal 2	360.73
306.87 K, Crystal 2	401.98
309.17 K, Crystal 2	438.39
311.36 K, Crystal 2	491.36
318.51 K, Crystal 1	314.18
320.91 K, Crystal 1	318.35
323.31 K, Crystal 1	325.56
325.78 K, Crystal 1	328.61
328.18 K, Crystal 1	335.06
330.58 K, Crystal 1	339.72
332.99 K, Crystal 1	345.04
335.32 K, Crystal 1	351.32
337.66 K, Crystal 1	358.41
340.01 K, Crystal 1	364.19
342.27 K, Crystal 1	369.83
344.55 K, Crystal 1	376.43
346.82 K, Crystal 1	381.43
349.03 K, Crystal 1	386.89
351.17 K, Crystal 1	394.15
353.25 K, Crystal 1	400.12
355.33 K, Crystal 1	406.54
357.27 K, Crystal 1	412.66
359.16 K, Crystal 1	419.26
360.91 K, Crystal 1	423.77
362.53 K, Crystal 1	426.99
364.09 K, Crystal 1	434.07
365.32 K, Crystal 1	439.39
366.56 K, Crystal 1	441.96
367.66 K, Crystal 1	446.63
368.51 K, Crystal 1	453.39

Conditions	Molar enthalpy of transition or fusion [kcal/mol]	Triple point temperature [K]
[2]	1.37	–
[3]	–	311.4
